The text below walks through data of patent US9193695B2, “1, 2, 4-triazolone derivative and use thereof as an antagonist on the arginine-vasopressin 1B receptor” (TAISHO PHARMACEUTICAL CO., LTD., priority 2010, dated 2015).

The target of this assay is T1, Human V1b receptor (Homo sapiens, UniProt P47901).
T1 sequence (P47901 1-424): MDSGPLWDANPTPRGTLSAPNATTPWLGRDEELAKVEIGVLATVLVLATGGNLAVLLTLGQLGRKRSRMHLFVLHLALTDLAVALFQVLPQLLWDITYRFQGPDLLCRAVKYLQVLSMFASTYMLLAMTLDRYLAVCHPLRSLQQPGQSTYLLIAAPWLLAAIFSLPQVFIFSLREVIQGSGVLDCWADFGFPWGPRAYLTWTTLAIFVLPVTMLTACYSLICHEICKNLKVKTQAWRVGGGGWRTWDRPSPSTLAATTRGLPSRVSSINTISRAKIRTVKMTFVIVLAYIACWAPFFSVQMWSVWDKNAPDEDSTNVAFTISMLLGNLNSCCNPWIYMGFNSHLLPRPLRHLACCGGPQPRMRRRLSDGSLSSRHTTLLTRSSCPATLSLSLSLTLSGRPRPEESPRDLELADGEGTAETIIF
As to the kind of experiment: Binding test for V1b receptor ([3H]AVP displacement, crude membrane preparation). Set-up: expressed in transfected cells; host or cells: 293FT cells (Invitrogen), transient expression; crude membrane preparation. The note with it: [3H]AVP 0.4 to 1 nmol/L; membranes of 293FT cells transiently expressing human V1b receptor; room temperature, 60 minutes. How it is done: Binding Test for V1b Receptor
Human V1b receptor was transiently expressed in 293FT cells (Invitrogen). The cells were collected and were homogenated in a 15 mmol/L tris-hydrochloric acid buffer (pH 7.4, containing 2 mmol/L magnesium chloride, 0.3 mmol/L ethylenediaminetetracetic acid, and 1 mmol/L glycol ether diaminetetraacetic acid). The resulting homogenate was centrifuged at 50,000×g at 4° C. for 20 minutes. The precipitate was resuspended in a 75 mmol/L tris-hydrochloric acid buffer (pH 7.4, containing 12.5 mmol/L magnesium chloride, 0.3 mmol/L ethylenediaminetetracetic acid, 1 mmol/L glycol ether diamine tetraacetic acid, and 250 mmol/L sucrose) to give a crude membrane preparation, which was stored at −80° C. until the binding test. In the binding test, the crude membrane preparation was diluted with a 50 mmol/L tris-hydrochloric acid buffer (pH 7.4, containing 10 mmol/L magnesium chloride and 0.1% bovine serum albumin), and test compound was serially diluted with DMSO. The diluted crude membrane preparation was incubated with each test compound (final concentration of 0.01 nmol/L to 1 μmol/L) and [^3H]AVP (final concentration: 0.4 to 1 nmol/L) at room temperature for 60 minutes. After the incubation, the mixture was suction filtered through a GF/C filter pretreated with 0.3% polyethyleneimine. The GF/C filter was dried, and a scintillator was added thereto. The radioactivity remaining on the filter was measured using TopCount (PerkinElmer Inc.). The radioactivity in the presence of 10 μmol/L of unlabeled AVP was defined as 0%, and the radioactivity in the absence of unlabeled AVP was defined as 100%. A dose-response curve was plotted from radioactivities in the presence of a test compound at various concentrations, and the 50% inhibitory concentration (IC50 value) of the compound was calculated.

Where a name gives a salt, the structure may show the parent alone.

Turning to `CC(C)(C)NC(=O)Cn1c(-c2cccc(Cl)c2)nn(-c2ccc(CCN3CCOCC3)cn2)c1=O` [Ad-17, N-Tert-Butyl-2-[3-(3-chlorophenyl)-1-{5-[2-(morpholin-4-yl)ethyl]pyridin-2-yl}-5-oxo-1,5-dihydro-4H-1,2,4-triazol-4-yl]acetamide], the half-inhibitory concentration (IC50) – broadly, the concentration needed to halve the response being measured – came to 3.5 nM. This counts as single-digit nanomolar.

The compound `CC(C)(C)NC(=O)Cn1c(-c2cccc(Cl)c2)nn(-c2ccc(CCN3C4CCC3COC4)cn2)c1=O` [Ad-18, N-Tert-Butyl-2-[3-(3-chlorophenyl)-1-{5-[2-(3-oxa-8-azabicyclo[3.2.1]oct-8-yl)ethyl]pyridin-2-yl}-5-oxo-1,5-dihydro-4H-1,2,4-triazol-4-yl]acetamide] returned a 50% inhibitory concentration (IC50) of 2.6 nM. The IC50 values of the last two compounds are within 1.5-fold of each other.

Compound `CC(C)NC(=O)Cn1c(-c2cccc(Cl)c2)nn(-c2ccc(CCN)cc2)c1=O` [Ad-21, 2-[3-(3-Chlorophenyl)-1-[4-(2-aminoethyl)phenyl]-5-oxo-1,5-dihydro-4H-1,2,4-triazol-4-yl]-N-(propan-2-yl)acetamide] yielded an IC50 of 365 nM.

Consider `COc1cccc(-c2nn(-c3ccc(CCN4C5CCC4COC5)cc3)c(=O)n2CC(=O)NC(C)C)c1` [Ba-3, 2-[3-(3-Methoxyphenyl)-1-{4-[2-(3-oxa-8-azabicyclo[3.2.1]oct-8-yl)ethyl]phenyl}-5-oxo-1,5-dihydro-4H-1,2,4-triazol-4-yl]-N-(propan-2-yl)acetamide], for which the 50% inhibitory concentration (IC50) came out at 9.4 nM.

Take `COc1cccc(-c2nn(-c3ccc(CCN4CCOCC4)cn3)c(=O)n2CC(=O)NC(C)(C)C)c1` [Bd-1, N-Tert-Butyl-2-[3-(3-methoxyphenyl)-1-{5-[2-(morpholin-4-yl)ethyl]pyridin-2-yl}-5-oxo-1,5-dihydro-4H-1,2,4-triazol-4-yl]acetamide]: the IC50 was determined as 4.1 nM.

Regarding `COc1cccc(-c2nn(-c3ccc(CCN4C5CCC4COC5)cn3)c(=O)n2CC(=O)NC(C)(C)C)c1` [Bd-2, N-Tert-Butyl-2-[3-(3-methoxyphenyl)-1-{5-[2-(3-oxa-8-azabicyclo[3.2.1]oct-8-yl)ethyl]pyridin-2-yl}-5-oxo-1,5-dihydro-4H-1,2,4-triazol-4-yl]acetamide], the IC50 amounted to 3.6 nM.

`COc1cccc(-c2nn(-c3ccc(CC(C)N4C5CCC4COC5)cc3)c(=O)n2CC(=O)NC(C)(C)C)c1` (stereo not shown) [Bd-3, N-Tert-Butyl-2-[3-(3-methoxyphenyl)-1-{4-[2-(3-oxa-8-azabicyclo[3.2.1]oct-8-yl)propyl]phenyl}-5-oxo-1,5-dihydro-4H-1,2,4-triazol-4-yl]acetamide]: the IC50 was 0.21 nM.

Regarding `COc1cccc(-c2nn(-c3ccc(CC(C)N4C5CCC4COC5)cn3)c(=O)n2CC(=O)NC(C)(C)C)c1` (stereo not shown) [Bd-4, N-Tert-Butyl-2-[3-(3-methoxyphenyl)-1-{5-[2-(3-oxa-8-azabicyclo[3.2.1]oct-8-yl)propyl]pyridin-2-yl}-5-oxo-1,5-dihydro-4H-1,2,4-triazol-4-yl]acetamide], the concentration for half-maximal inhibition (IC50) was 0.44 nM.

Consider `COc1cc(-c2nn(-c3ccc(CCN4CCCCC4)cc3)c(=O)n2CC(=O)NC(C)C)ccc1F` [Ca-1, 2-[3-(4-Fluoro-3-methoxyphenyl)-5-oxo-1-{4-[2-(piperidin-1-yl)ethyl]phenyl}-1,5-dihydro-4H-1,2,4-triazol-4-yl]-N-(propan-2-yl)acetamide], for which the IC50 was 26 nM.

`COc1cc(-c2nn(-c3ccc(CCN4C5CCC4COC5)cc3)c(=O)n2CC(=O)NC(C)C)ccc1F` [Ca-5, 2-[3-(4-Fluoro-3-methoxyphenyl)-1-{4-[2-(3-oxa-8-azabicyclo[3.2.1]oct-8-yl)ethyl]phenyl}-5-oxo-1,5-dihydro-4H-1,2,4-triazol-4-yl]-N-(propan-2-yl)acetamide] yielded an IC50 of 4.4 nM. This IC50 lies about 5.9-fold lower than the previous one.

In the case of `COc1cc(-c2nn(-c3ccc(CCN4CC5(CCOCC5)C4)cc3)c(=O)n2CC(=O)NC(C)C)ccc1F` [Ca-6, 2-[3-(4-Fluoro-3-methoxyphenyl)-1-{4-[2-(7-oxa-2-azaspiro[3.5]non-2-yl)ethyl]phenyl}-5-oxo-1,5-dihydro-4H-1,2,4-triazol-4-yl]-N-(propan-2-yl)acetamide], the IC50 lay within 10 to 100 nM.

`COc1cc(-c2nn(-c3ccc(CCN4CC=CCC4)cc3)c(=O)n2CC(=O)NC(C)C)ccc1F` [Ca-7, 2-[1-{4-[2-(3,6-Dihydropyridin-1(2H)-yl)ethyl]phenyl}-3-(4-fluoro-3-methoxyphenyl)-5-oxo-1,5-dihydro-4H-1,2,4-triazol-4-yl]-N-(propan-2-yl)acetamide] yielded a half-inhibitory concentration (IC50) of 10 to 100 nM.

`COc1cc(-c2nn(-c3ccc(CCN4CCSCC4)cc3)c(=O)n2CC(=O)NC(C)C)ccc1F` [Ca-8, 2-[3-(4-Fluoro-3-methoxyphenyl)-5-oxo-1-{4-[2-(thiomorpholin-4-yl)ethyl]phenyl}-1,5-dihydro-4H-1,2,4-triazol-4-yl]-N-(propan-2-yl)acetamide] registered an IC50 below 10 nM.

As for `COc1cc(-c2nn(-c3ccc(CCN4CCC(C)CC4)cc3)c(=O)n2CC(=O)NC(C)C)ccc1F` [Ca-9, 2-[3-(4-Fluoro-3-methoxyphenyl)-1-{4-[2-(4-methylpiperidin-1-yl)ethyl]phenyl}-5-oxo-1,5-dihydro-4H-1,2,4-triazol-4-yl]-N-(propan-2-yl)acetamide], the IC50 was in the range of 10 to 100 nM.

The compound `COc1cc(-c2nn(-c3ccc(CCN4CCC(C#N)CC4)cc3)c(=O)n2CC(=O)NC(C)C)ccc1F` [Ca-10, 2-[1-{4-[2-(4-Cyanopiperidin-1-yl)ethyl]phenyl}-3-(4-fluoro-3-methoxyphenyl)-5-oxo-1,5-dihydro-4H-1,2,4-triazol-4-yl]-N-(propan-2-yl)acetamide] yielded an IC50 of 100 to 1000 nM.

In the case of `COc1cc(-c2nn(-c3ccc(CCN4CCCC(OC)C4)cc3)c(=O)n2CC(=O)NC(C)C)ccc1F` (stereo not shown) [Ca-11, 2-[3-(4-Fluoro-3-methoxyphenyl)-1-{4-[2-(3-methoxypiperidin-1-yl)ethyl]phenyl}-5-oxo-1,5-dihydro-4H-1,2,4-triazol-4-yl]-N-(propan-2-yl)acetamide], the IC50 lay in the range of 10 to 100 nM.

Compound `CCCC1CCN(CCc2ccc(-n3nc(-c4ccc(F)c(OC)c4)n(CC(=O)NC(C)C)c3=O)cc2)CC1` [Ca-12, 2-[3-(4-Fluoro-3-methoxyphenyl)-5-oxo-1-{4-[2-(4-propylpiperidin-1-yl)ethyl]phenyl}-1,5-dihydro-4H-1,2,4-triazol-4-yl]-N-(propan-2-1)acetamide] had an IC50 of 100 to 1000 nM.

As for `COc1cc(-c2nn(-c3ccc(CCN4CCC(C(N)=O)CC4)cc3)c(=O)n2CC(=O)NC(C)C)ccc1F` [Ca-13, 1-[2-(4-{3-(4-Fluoro-3-methoxyphenyl)-5-oxo-4-[2-oxo-2-(propan-2-ylamino)ethyl]-4,5-dihydro-1H-1,2,4-triazol-1-yl}phenyl)ethyl]piperidine 4-carboxamide], the half-maximal inhibitory concentration (IC50) lay within 100 to 1000 nM.

Compound `COc1cc(-c2nn(-c3ccc(CCN4CCC(N(C)C)CC4)cc3)c(=O)n2CC(=O)NC(C)C)ccc1F` [Ca-14, 2-[1-(4-{2-[4-(Dimethylamino)piperidin-1-yl]ethyl}phenyl)-3-(4-fluoro-3-methoxyphenyl)-5-oxo-1,5-dihydro-4H-1,2,4-triazol-4-yl]-N-(propan-2-yl)acetamide] displayed an IC50 of 100 to 1000 nM.

Compound `COc1cc(-c2nn(-c3ccc(CCN4CCC5CCCCC5C4)cc3)c(=O)n2CC(=O)NC(C)C)ccc1F` (stereo not shown) [Ca-15, 2-[3-(4-Fluoro-3-methoxyphenyl)-1-{4-[2-(octahydroisoquinolin-2(1H)-yl)ethyl]phenyl}-5-oxo-1,5-dihydro-4H-1,2,4-triazol-4-yl]-N-(propan-2-yl)acetamide] had an IC50 of 10 to 100 nM.

In turn, `COc1cc(-c2nn(-c3ccc(CCN4CCC(F)CC4)cc3)c(=O)n2CC(=O)NC(C)C)ccc1F` [Ca-16, 2-[3-(4-Fluoro-3-methoxyphenyl)-1-{4-[2-(4-fluoropiperidin-1-yl)ethyl]phenyl}-5-oxo-1,5-dihydro-4H-1,2,4-triazol-4-yl]-N-(propan-2-yl)acetamide trifluoroacetate] showed a 50% inhibitory concentration (IC50) of 10 to 100 nM.

`COc1cc(-c2nn(-c3ccc(CCN4CCC(NC(C)=O)CC4)cc3)c(=O)n2CC(=O)NC(C)C)ccc1F` [Ca-17, 2-[1-(4-{2-[4-(Acetylamino)piperidin-1-yl]ethyl}phenyl)-3-(4-fluoro-3-methoxyphenyl)-5-oxo-1,5-dihydro-4H-1,2,4-triazol-4-yl]-N-(propan-2-yl)acetamide] gave an IC50 of 100 to 1000 nM.
